According to US8916607B2, “Use of piperphentonamine or salts thereof in manufacture of medicaments for treating brain diseases” (Guangzhou Municipal Zhongwei Biotechnology Limited Company, priority 2009, dated 2014):
Marks after values point to notes of the source that are not given here.

Tests used:
[1] = system: cerebral ischemia/reperfusion injury in mice; experiment: focal cerebral ischemia reperfusion injury model in mice (suture method), TTC infarction area; format: in vivo
Procedure: Focal cerebral ischemia reperfusion injury model is made in mice by using suture method, being ischemia for 2 h, then reperfusing for 24 h, and it proves that piperphentonamine hydrochloride has protective effect on ischemia-reperfusion cerebral injury.
Mouse is anesthetized by injecting 10% chloral hydrate (350 mg/kg) in intraperitoneal, being intravenously administered 1 mg/kg, 5 mg/kg piperphentonamine hydrochloride or 20 u/kg coenzyme A, (COA), making the cerebral artery ischemia like as the method of example 6. Pulling out nylon thread from the internal carotid artery after the operation in 2 hours, until the end of the nylon thread is at bifurcation of the common carotid artery. Reperfusing for 24 hours. Except for not inserting a thread, the rest of steps for the false operation group are same as the above-mentioned. After reperfusion for 24 h, decapitating and taking the brain of survived mice, rapidly putting in −20° C. freezer for 5 min, then removing, quickly cutting coronal slices of 2.0 mm thickness from forward to back on the operating table, putting the slices in phosphate buffer solution with 1% TTC immediately, incubating for 30 min in avoiding light at room temperature. Flip brain slices to make them touch staining solution uniformly every 10 minute, and scanning and observing the dyeing results.
The local cerebral ischemia model of mice was established by using thread bolt method, to validate that piperphentonamine acetate has protective effect on experimental cerebral ischemia animal.

[2] = system: infective brain edema of rats (pertussis bacteria liquid); experiment: infective cerebral edema by pertussis bacteria liquid: brain water, sodium and potassium ion content; format: in vivo, SD rats; design: Na^+ / K^+: unit not given here; conditions: pretreatment 0.5 mg/kg ip daily for 2 days; 4 h after bacterial liquid
[3] = system: infective brain edema of rats (pertussis bacteria liquid); experiment: infective cerebral edema: IL-1β, TNF-α (ELISA) and NO (Griess) in cerebral tissue; format: in vivo, SD rats; conditions: pretreatment 0.5 mg/kg ip daily for 2 days; rat brain tissue, 4 h
Procedure: Determine the content of IL-1β, TNF-α and NO by using ELISA and Griess method.
Model preparation was same as that of example 4. Piperphentonamine acetate group was intraperitoneally injected with 0.5 mg/kg daily for 2 days 48 h before the injection of pertussis bacterial liquid. Rats in each group were decollated after being injected with bacterial liquid or saline 4 h. ELISA method and Griess method were used to measure the content of IL-1β, TNF-α and NO in brain homogenate of infectious brain edema model of rats.

[4] = system: cerebral edema of mice caused by closed cerebral trauma; experiment: closed cerebral trauma model of mice, brain water content; format: in vivo, Kunming mice; conditions: method as example 2
Procedure: There were 10 mice in each group.
The closed cerebral trauma model of mice being established after fasting for 16 hours, administering intravenously to each group, striping and taking the brain of mouse after 24 hours, weighing the wet weight, and drying at 70° C. for 24 hours, then weighing the dry weight, and calculating brainwater content; the brain water content which is higher than normal values indicates the cerebral edema.
The grouping method, administer method and model preparation were referred to example 2.

[5] = system: cultured cerebral neurons; experiment: NMDA induces neuron injury in primary cultured neurons; format: cell-based, rat; conditions: drug 50 mmol/L; NMDA 50 mmol/L, 12 h

Compound: Nc1ncnc2c1ncn2[C@@H]1O[C@H](COP(=O)(O)OP(=O)(O)OP(=O)(O)O)[C@@H](O)[C@H]1O [ATP, reference compound]
- The percentage of infarction area occupied the entire coronal plane (%) ([1]; 5 mg/kg, method as example 7 (example 16)): 20.53 ± 4.82 %

Compound: CC(C)(COP(=O)(O)OP(=O)(O)OC[C@H]1O[C@@H](n2cnc3c(N)ncnc32)[C@H](O)[C@@H]1OP(=O)(O)O)[C@@H](O)C(=O)NCCC(=O)NCCS [CoA, coenzyme A, reference compound]
- The percentage of infarction area occupied the entire coronal plane (%) ([1]; 20 U/kg iv, ischemia 2 h, reperfusion 24 h): 20.53 ± 4.82 %

Compound: CC1=NN(c2ccccc2)C(=O)C1 [Edaravone Injection, edaravone, reference compound]
- The percentage of infarction area occupied the entire coronal plane (%) ([1]; 3 mg/kg, method as example 7 (example 16)): 18.43 ± 3.56 %

Compound: CC(=O)O.CN(CCC(=O)/C=C/c1ccc(O)cc1)CCc1ccc2c(c1)OCO2 [piperphentonamine acetate]
- K^+ [2]: 396.6 ± 39.9
- Na^+ [2]: 164.7 ± 23.7
- brain water content (%) [2]: 63.44 ± 0.4^3) %
- IL-1β [3]: 197.1 ± 27.1^2)3) pg/g
- NO [3]: 53.3 ± 3.71^2)3) nmol/g
- TNF-α [3]: 309.3 ± 83.5^2)3) pg/g
- The percentage of infarction area occupied the entire coronal plane (%) ([1]; 4 mg/kg, thread bolt method (example 15)): 18.12 ± 2.64^ΔΔ %

Compound: CN(CCC(=O)/C=C/c1ccc(O)cc1)CCc1ccc2c(c1)OCO2.O=C(O)CC(O)(CC(=O)O)C(=O)O [piperphentonamine citrate]
- brain water content (%) ([4]; 2 mg/kg): 80.32 ± 7.72 %
- brain water content (%) ([4]; 4 mg/kg): 78.84 ± 9.48 %
- brain water content (%) ([4]; 8 mg/kg): 75.28 ± 6.48 %
- The percentage of infarction area occupied the entire coronal plane (%) ([1]; treated group (C), dose not given, model as example 7): 16.88 ± 2.48**^ΔΔ %

Compound: Ganglioside [GM, reference compound]
- morphological change of culture neuron (protection function) [5]: equal to the one of piperphentonamine hydrochloride 10 mmol/L
- mortality [5]: 40%
